Read-outs that look alike come from different tables or passages of the source.

These results are taken from patent publication US11154479B1, “Methods of removing color from color-treated hair” (L'Oreal, priority 2020, dated 2021).

Data set [1] in a line: Removal of HC Blue 15 from dyed hair swatches by organic salt solutions (ΔE, CIE L*a*b*). The following applies: HC Blue 15 dyed hair; for ΔE: soaked 30 minutes at 40° C., shampooed once. How it is done:
(§1) Unless otherwise indicated, hair swatches were all treated using the same protocol. Specifically, 2 g dyed hair swatches are soaked in 80 g treatment solution in water for 30 minutes at 40° C., then the treated hair swatches are then shampooed/washed once (rinsing step) and blow-dried for evaluation.
(§2) Unless otherwise indicated, color removal performance is measured using CIE L* a* b* coordinates. ΔE is used to describe the color difference and is defined by the following equation: ΔE*ab=√{square root over ((L*2−L*1)^2+(a*2−a*1)^2+(b*2−b*1)^2)} where, L1*, a1; b1 are measured on freshly dyed hair L2*, a2, b2 are measured on the dyed hair treated by color remover systems. The higher ΔE values, the more efficient the color removal.
Hair swatches dyed with HC Blue 15 were treated with the organic salts at varying concentrations using the protocol described above.

For data set [2] the following is noted: 10% organic salt in water; hydroxyanthraquinoneaminopropyl methyl morpholinium methosulfate dyed hair; 30 minutes at 40° C.; water control 2.9.
Data set [3] can be described thus: Removal of Basic Red 51 from dyed hair swatches by organic salt solutions (ΔE). The following applies: 10% organic salt in water; Basic Red 51 dyed hair; soaked 30 minutes at 40° C.; water control 5.3. How it is done:
as §1, §2
Hair swatches dyed with Basic Red 51 were treated with BMIM octylsulfate and TBuMA Cl, each at 10% concentration using the protocol described above. Basic Red 51 contains a quaternary moiety and has the structure below.

Data set [4] can be described thus: Octanol/water partition coefficient (Log Pow) of direct dyes. It is filed as physicochemical. The following applies: octanol/water partition coefficient of the dye. The text has this: Pow is the octanol/water partition coefficient, which can be defined as the ratio of the concentration of a solute, such as the direct dye in the present disclosure, in a water-saturated octanolic phase to its concentration in an octanol-saturated aqueous phase. The octanol/water partition coefficient is typically expressed in Logarithmic form.
There are several existing experimental methods by the Organisation for Economic Co-operation and Development (OECD) and Quantitative Structure-Property Relationship (QSPR) models available for Log Pow measurement or prediction. The experimental methods include: the ‘slow-stirring’ method (OECD Test No. 123), the high-performance liquid chromatography (HPLC) method (OECD Test No. 117), and shake flask methods (referred to in OECD Test No. 107).
Thus, partition coefficient of a dye may be calculated as follows: Log Pow=Log [(dye concentration in octanol)/(dye concentration in water)].
The Log Pow value of a direct dye can be positive, negative or neutral. The Log Pow values for some dyes follows in the below table.

As for “butyl-3-methylimidazolium octyl sulfate [BMIM octyl sulfate]”, the ΔE is 1.3 in data set [1] (1% organic salt in water); 18.4 in data set [1] (5% organic salt in water); 32.2 in data set [1] (10% organic salt in water); 39.1 in data set [2]; 22.2 in data set [3]. The “Concentration of organic salt from which the ΔE value increased significantly” value in data set [1] is “about 5%”.

For the compound `COS(=O)(=O)[O-].C[N+]1(CCCNc2ccc(O)c3c2C(=O)c2ccccc2C3=O)CCOCC1` [Hydroxyanthraquinoneaminopropyl methyl morpholinium methosulfate], in data set [4], the “Log Pow” value is reported as “around 2.89”.

As to `CCCC[N+](C)(CCCC)CCCC.[Cl-]` [TBuMA Cl, tributylmethyl ammonium chloride], the ΔE was 32.8 in data set [1] (25% organic salt in water) and 23.1 in data set [3].
